Measured values from patent EP2604600A1, “Isatin derivatives and their use in therapy” (priority 2011, dated 2013).
In brackets after ≈: the same amount, converted by molar mass.

Key:
Experiment in all cases: microbe, parasite or virus in culture
Format in all cases: cell-based
[1] = system: ATCC 35830 Ethionamide Resistant; settings: Mycobacterium tuberculosis, ATCC35830, 48 h
[2] = system: ATCC 35821 Para-aminosalicylic Resistant; settings: Mycobacterium tuberculosis, ATCC35821, 48 h
[3] = system: ATCC 35827 Kanamycin Resistant; settings: Mycobacterium tuberculosis, ATCC35827, 48 h
[4] = system: ATCC 35822 Isoniazid Resistant; settings: Mycobacterium tuberculosis, ATCC35822, 48 h
[5] = system: ATCC 35837 Ethambutol Resistant; settings: Mycobacterium tuberculosis, ATCC35837, 48 h
[6] = system: ATCC 35820 Streptomycin Resistant; settings: Mycobacterium tuberculosis, ATCC35820, 48 h

Row | SMILES | MIC [1] [µg/mL] | MIC [2] [µg/mL] | MIC [3] [µg/mL] | MIC [4] [µg/mL] | MIC [5] [µg/mL] | MIC [6] [µg/mL]
1 | O=C(NN=C1C(=O)N(Cc2ccccc2)c2ccccc21)c1ccc([N+](=O)[O-])o1 [Compound 3g] | 156 (≈ 400 µM) | 312 (≈ 799 µM) | 156 (≈ 400 µM) | 156 (≈ 400 µM) | 0.156 (≈ 0.4 µM) | 78 (≈ 200 µM)
2 | O=C1Nc2ccc(OC(F)(F)F)cc2C1=NNC(=O)c1ccc([N+](=O)[O-])o1 [Compound 3e] | 0.5 (≈ 1.3 µM) | 0.5 (≈ 1.3 µM) | 5 (≈ 13 µM) | 5 (≈ 13 µM) | 2.5 (≈ 6.51 µM) | 25 (≈ 65.1 µM)
3 | O=C1Nc2ccc(Cl)cc2C1=NNC(=O)c1ccncc1 [Compound 3a] | 10 (≈ 33.3 µM) | 25 (≈ 83.1 µM) | 25 (≈ 83.1 µM) | 10 (≈ 33.3 µM) | 1.25 (≈ 4.16 µM) | 25 (≈ 83.1 µM)
4 | O=C1Nc2ccc([N+](=O)[O-])cc2C1=NNC(=O)c1ccncc1 [Compound 3c] | 0.5 (≈ 1.61 µM) | 156 (≈ 501 µM) | 312 (≈ 1000 µM) | 10 (≈ 32.1 µM) | 0.156 (≈ 0.501 µM) | 156 (≈ 501 µM)
